Source: patent US10696648B2, “Inhibitors of indoleamine 2,3-dioxygenase and methods of their use” (BRISTOL-MYERS SQUIBB COMPANY, priority 2016, dated 2020)

target: T1, human IDO1 (Homo sapiens, UniProt P14902); assay: HEK293 cells stably expressing human IDO1, IDO inhibition assay (kynurenine, Ehrlich reagent); assay type: cell-based; conditions: 20 hours incubation, absorbance at 490 nm, read-out: HEK Human IDO-1 Bio Activity (IDO IC50)
T1 construct: expressed in transfected cells
Description: HEK293 cells were transfected with a pCDNA-based mammalian expression vector harboring human IDO1 cDNA (NM 002164.2) by electroporation. They were cultured in medium (DMEM with 10% FBS) containing 1 mg/ml G418 for two weeks. Clones of HEK293 cells that stably expressed human IDO1 protein were selected and expanded for IDO inhibition assay. The human IDO1/HEK293 cells were seeded at 10,000 cells per 50 μL per well with RPMI/phenol red free media contains 10% FBS in a 384-well black wall clear bottom tissue culture plate (Matrix Technologies LLC) 100 nL of certain concentration of compound was then added to each well using ECHO liquid handling systems. The cells were incubated for 20 hours in 37° C. incubator with 5% CO2. The compound treatments were stopped by adding trichloroacetic acid (Sigma-Aldrich) to a final concentration at 0.2%. The cell plate was further incubated at 50° C. for 30 minute. The equal volume supernatant (20 μL) and 0.2% (w/v) Ehrlich reagent (4-dimethylaminobenzaldehyde, Sigma-Aldrich) in glacial acetic acid were mixed in a new clear bottom 384-well plate. This plate was then incubated at room temperature for 30 minute. The absorbance at 490 nm was measured on Envision plate reader. Compound IC50 values were calculated using the counts of 500 nM of a reference standard treatment as one hundred percent inhibition, and counts of no compound but DMSO treatment as zero percent inhibition.

T1 sequence (P14902 whole entry): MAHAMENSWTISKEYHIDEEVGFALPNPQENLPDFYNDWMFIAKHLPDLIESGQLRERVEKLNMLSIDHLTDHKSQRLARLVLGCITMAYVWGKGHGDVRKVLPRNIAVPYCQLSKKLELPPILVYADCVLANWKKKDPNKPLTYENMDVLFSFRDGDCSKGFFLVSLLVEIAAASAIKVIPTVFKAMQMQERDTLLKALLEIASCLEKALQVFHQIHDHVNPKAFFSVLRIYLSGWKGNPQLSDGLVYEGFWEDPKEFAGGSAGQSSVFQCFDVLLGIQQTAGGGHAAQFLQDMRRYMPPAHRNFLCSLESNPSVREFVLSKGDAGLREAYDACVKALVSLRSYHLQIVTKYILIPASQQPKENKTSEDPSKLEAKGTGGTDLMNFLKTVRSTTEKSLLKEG

Question: For `C[C@@H](NC(=O)N(Cc1ccc(CC(=O)O)cc1)[C@H]1CC[C@H](c2ccnc3ccc(F)cc32)CC1)c1ccc(F)cc1` [Example 41, 2-(4-((3-((R)-1-(4-fluorophenyl)ethyl)-1-((1 r,4R)-4-(6-fluoroquinolin-4-yl)cyclohexyl)ureido)methyl)phenyl)acetic Acid], which IC50 is on record?
Answer: < 100 nM

Question: With `Cc1ccc(NC(=O)N(Cc2ccccc2)[C@H]2CC[C@H](c3ccnc4ccc(F)cc43)CC2)cc1` [Example 20, 1-benzyl-1-(trans-4-(6-fluoroquinolin-4-yl)cyclohexyl)-3-(p-tolyl)urea] as the molecule, how does the IC50 read?
Answer: < 1000 nM

Question: For `C[C@H](NC(=O)N[C@H]1CC[C@H](c2ccnc3ccc(F)cc32)CC1)c1ccc(Cl)cc1` [Example 34, 1-((S)-1-(4-chlorophenyl)ethyl)-3-((1r,4S)-4-(6-fluoroquinolin-4-yl)cyclohexyl)urea], which IC50 is on record?
Answer: < 1000 nM

Question: Which IC50 does the source give for `C[C@@H](NC(=O)N(Cc1ccccc1)[C@H]1CC[C@H](c2ccnc3ccc(F)cc32)CC1)c1ccc(F)cc1` [Example 40, 1-benzyl-3-((R)-1-(4-fluorophenyl)ethyl)-1-((1r,4R)-4-(6-fluoroquinolin-4-yl)cyclohexyl)urea] here?
Answer: < 1000 nM

Question: How did the IC50 turn out when `COc1ccc(CN(C(=O)NC2CCCC2)C2CCC(c3ccccc3)CC2)cc1` (stereo not drawn) [Example 44, 3-cyclopentyl-1-(4-methoxybenzyl)-1-((1r,4r)-4-phenylcyclo-hexyl)urea] was run?
Answer: < 1000 nM

Question: With `O=C(Nc1ccc(F)cc1)N(Cc1ccccc1)[C@H]1CC[C@H](c2ccnc3ccc(F)cc32)CC1` [Example 19, 1-benzyl-3-(4-fluorophenyl)-1-(trans-4-(6-fluoroquinolin-4-yl)cyclohexyl)urea] as the molecule, how does the IC50 read?
Answer: < 100 nM

Question: `O=C(Nc1ccc(Cl)cc1F)N(Cc1ccccc1)[C@H]1CC[C@@H](c2ccnc3ccc(F)cc32)CC1` [Example 24, 1-benzyl-3-(4-chloro-2-fluorophenyl)-1-(cis-4-(6-fluoroquinolin-4-yl)cyclohexyl)urea] was tested. Which IC50 did it give?
Answer: < 100 nM

Question: How did the IC50 turn out when `CN(C(=O)Nc1ccc(Cl)cc1)[C@H]1CC[C@@H](c2ccnc3ccc(F)cc32)CC1` [Example 15, 3-(4-chlorophenyl)-1-(cis-4-(6-fluoroquinolin-4-yl)cyclohexyl)-1-methylurea] was run?
Answer: < 1000 nM

Question: For `CCCCc1ccc(NC(=O)N(C)C2CCN(c3ccnc4ccc(F)cc34)CC2)cc1` [Example 2, 3-(4-Butylphenyl)-1-(1-(6-fluoroquinolin-4-yl)piperidin-4-yl)-1-methylurea], which IC50 is on record?
Answer: < 100 nM

Question: How did the IC50 turn out when `O=C(Nc1ccc(Cl)cc1)N(Cc1ccccc1)[C@H]1CC[C@@H](c2ccnc3ccc(F)cc32)CC1` [Example 23, 1-benzyl-3-(4-chlorophenyl)-1-(cis-4-(6-fluoroquinolin-4-yl)cyclohexyl)urea] was run?
Answer: < 1000 nM

Question: How did the IC50 turn out when `O=C(O)Cc1ccc(CN(C(=O)Nc2ccc(Cl)cc2F)[C@H]2CC[C@H](c3ccnc4ccc(F)cc43)CC2)cc1` [Example 26, 2-(4-((3-(4-chloro-2-fluorophenyl)-1-(trans-4-(6-fluoroquinolin-4-yl)cyclohexyl)ureido)methyl)phenyl) acetic acid] was run?
Answer: < 100 nM

Question: How did the IC50 turn out when `C[C@H](NC(=O)N[C@H]1CC[C@@H](c2ccnc3ccc(F)cc32)CC1)c1ccc(Cl)cc1` [Example 35, 1-((S)-1-(4-chlorophenyl)ethyl)-3-((1s,4R)-4-(6-fluoroquinolin-4-yl)cyclohexyl)urea] was run?
Answer: < 1000 nM

Question: `COc1ccc(CN(C(=O)NC2CCCCC2)[C@H]2CC[C@H](c3ccccc3)CC2)cc1` [Example 43, 3-cyclohexyl-1-(4-methoxybenzyl)-1-((1r,4r)-4-phenylcyclohexyl)urea] was tested. Which IC50 did it give?
Answer: < 100 nM

Question: `O=C(Nc1ccc(Cl)cc1)N(Cc1ccccc1)[C@H]1CC[C@H](c2ccnc3ccc(F)cc32)CC1` [Example 18, 1-benzyl-3-(4-chlorophenyl)-1-(trans-4-(6-fluoroquinolin-4-yl)cyclohexyl)urea] was tested. Which IC50 did it give?
Answer: < 100 nM

Question: Which IC50 does the source give for `COc1ccc(CN(C(=O)Nc2ccc(Cl)cc2)[C@H]2CC[C@H](c3ccccc3)CC2)cc1` [Example 4, 3-(4-Chlorophenyl)-1-(4-methoxybenzyl)-1-((1r,4r)-4-phenylcyclohexyl)urea] here?
Answer: < 100 nM
